We go through 7 molecules from PubChem BioAssay (NCI).

Some test systems named below: A498 renal; CAKI-1 renal; HCC-2998 colon; HOP-62 NSCLC; NCI-H460 lung; OVCAR-5 ovarian; SK-OV-3 ovarian; U251 CNS; UACC-62 melanoma; UO-31 renal.
Assay in all cases: NCI tumour cell line growth inhibition, 48 h

Several values for one entry are separate records, joined by “and”; a condition that tells them apart may be missing. Equal values may be shown once.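 Values below derive from 48-hour exposures of cells grown in 96-well plates, with endpoints linearly interpolated between the two concentrations bracketing the appropriate inhibition level. GI50 marks 50% less growth. The concentration for full growth arrest is given as TGI.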

Regarding `CC(C)n1nc(-c2ccc3oc(N)nc3c2)c2c(N)ncnc21`, the GI50 in the test on A498 renal is under 0.01 µM; with CAKI-1 renal, < 0.0157 µM and 0.0161 µM; in the test with HCC-2998 colon, 0.024 µM and 0.0259 µM; in the test on HOP-62 NSCLC, 0.0198 µM and 0.0212 µM; in the test with NCI-H460 lung, under 0.01 µM; with OVCAR-5 ovarian it was 0.0132 µM and 0.0161 µM. Also, the GI50 was under 0.01 µM with SK-OV-3 ovarian; 0.0229 µM and 0.0255 µM in the test on U251 CNS; under 0.01 µM in the test on UACC-62 melanoma; under 0.01 µM in the test with UO-31 renal. Moreover, the TGI is under 0.01 µM in the test with A498 renal; 0.725 µM and 0.265 µM in the test with CAKI-1 renal; 11.5 µM and 11.9 µM in the test on HCC-2998 colon; 0.793 µM and 0.435 µM with HOP-62 NSCLC; 36.3 µM and 16.8 µM in the test with NCI-H460 lung; 1.4 µM and 2.08 µM in the test on OVCAR-5 ovarian. For the same molecule, the TGI was 0.049 µM and 0.0548 µM in the test with SK-OV-3 ovarian; 10.2 µM and 2.44 µM in the test with U251 CNS; 0.0317 µM and 0.049 µM in the test with UACC-62 melanoma; 0.0402 µM and 0.0898 µM in the test with UO-31 renal.
`C/C(=N\NC(=S)N1CC2CCC(CC2)C1)c1cccc(C)n1`: the TGI in the test with A498 renal came out at 13.2 µM; in the test with CAKI-1 renal, 14.2 µM; in the test with HCC-2998 colon it was 19.1 µM; in the test on HOP-62 NSCLC, 14.2 µM; in the test on NCI-H460 lung, 5.53 µM; in the test on OVCAR-5 ovarian, 15.9 µM. Further, the TGI in the test with SK-OV-3 ovarian came to 7.47 µM; in the test with U251 CNS, 11.8 µM; in the test with UACC-62 melanoma, 6.85 µM; with UO-31 renal, 4.94 µM. Further, the GI50 in the test with HOP-62 NSCLC was 0.397 µM; in the test on NCI-H460 lung it was 0.0633 µM; in the test with OVCAR-5 ovarian it was under 0.0001 µM; in the test on U251 CNS it was 0.408 µM.
As to `C[C@]1(Cn2ccnn2)C(C(=O)O)N2C(=O)CC2S1(=O)=O` (some centres undefined), the GI50 with A498 renal, in the test with CAKI-1 renal, in the test with HCC-2998 colon, in the test with HOP-62 NSCLC, in the test on NCI-H460 lung and in the test on OVCAR-5 ovarian was over 100 µM in each case. The GI50 in the test with SK-OV-3 ovarian, with U251 CNS, in the test with UACC-62 melanoma and with UO-31 renal was over 100 µM in each case. Also, the TGI with A498 renal, in the test with CAKI-1 renal, in the test with HCC-2998 colon, in the test on HOP-62 NSCLC, with NCI-H460 lung and in the test with OVCAR-5 ovarian was over 100 µM throughout. Moreover, the TGI with SK-OV-3 ovarian, in the test with U251 CNS, in the test with UACC-62 melanoma and in the test with UO-31 renal was over 100 µM each time.
Turning to `COC(=O)C1C=NNC1C(=O)OC` (centres undefined), the TGI with A498 renal, with CAKI-1 renal, with HCC-2998 colon, with HOP-62 NSCLC, with NCI-H460 lung and with OVCAR-5 ovarian was over 100 µM throughout. The TGI in the test on SK-OV-3 ovarian, in the test on U251 CNS, with UACC-62 melanoma and in the test with UO-31 renal was over 100 µM in each case.
Regarding `Cc1cccc(N2C(=O)C(=O)C(c3nc4ccccc4s3)/C(=N/NC(=S)NN)C2=O)c1C` (centres undefined), the TGI with A498 renal, in the test with CAKI-1 renal, in the test on HCC-2998 colon, in the test with HOP-62 NSCLC, in the test on NCI-H460 lung and with OVCAR-5 ovarian was over 100 µM each time. Further, the TGI in the test on SK-OV-3 ovarian, in the test with U251 CNS, with UACC-62 melanoma and in the test with UO-31 renal was over 100 µM throughout.
Consider `CC(C)CC(Nc1c(O)ccc2ccccc12)C(=O)O` (centres undefined), for which the TGI with A498 renal was 67.3 µM; in the test on CAKI-1 renal, 47.4 µM; with HCC-2998 colon, over 100 µM; with HOP-62 NSCLC it was over 100 µM; in the test with NCI-H460 lung, over 100 µM; in the test with OVCAR-5 ovarian it was over 100 µM. For the same molecule, the TGI in the test with SK-OV-3 ovarian is 66.3 µM; with U251 CNS it was over 100 µM; with UACC-62 melanoma it was 72.3 µM; in the test with UO-31 renal it was over 100 µM.
In the case of `CCCCNC(=O)c1cc(NCc2cc(O)ccc2O)ccc1O`, the GI50 in the test with A498 renal was 41.1 µM; with CAKI-1 renal it was 10.8 µM; in the test with HCC-2998 colon, 17.6 µM; in the test with HOP-62 NSCLC, 71.8 µM; in the test on NCI-H460 lung, 47.3 µM; in the test with OVCAR-5 ovarian, 17.4 µM. The GI50 in the test on SK-OV-3 ovarian is 67.5 µM; with U251 CNS, 22.6 µM; with UACC-62 melanoma, 13.7 µM; in the test on UO-31 renal, 2.82 µM. Besides, the TGI was over 100 µM in the test on A498 renal; 23.8 µM with CAKI-1 renal; 35.5 µM with HCC-2998 colon; over 100 µM in the test with HOP-62 NSCLC; over 100 µM in the test with NCI-H460 lung; 32 µM with OVCAR-5 ovarian. Moreover, the TGI in the test with SK-OV-3 ovarian was over 100 µM; in the test with U251 CNS it was 59.1 µM; in the test on UACC-62 melanoma it was 27.1 µM; in the test with UO-31 renal, 12.1 µM.
